Assay [1] deals with T1, 3-hydroxy-3-methylglutaryl-coenzyme A reductase (Rattus norvegicus, UniProt P51639).
T1 construct: from tissue
T1 sequence (P51639 1-887): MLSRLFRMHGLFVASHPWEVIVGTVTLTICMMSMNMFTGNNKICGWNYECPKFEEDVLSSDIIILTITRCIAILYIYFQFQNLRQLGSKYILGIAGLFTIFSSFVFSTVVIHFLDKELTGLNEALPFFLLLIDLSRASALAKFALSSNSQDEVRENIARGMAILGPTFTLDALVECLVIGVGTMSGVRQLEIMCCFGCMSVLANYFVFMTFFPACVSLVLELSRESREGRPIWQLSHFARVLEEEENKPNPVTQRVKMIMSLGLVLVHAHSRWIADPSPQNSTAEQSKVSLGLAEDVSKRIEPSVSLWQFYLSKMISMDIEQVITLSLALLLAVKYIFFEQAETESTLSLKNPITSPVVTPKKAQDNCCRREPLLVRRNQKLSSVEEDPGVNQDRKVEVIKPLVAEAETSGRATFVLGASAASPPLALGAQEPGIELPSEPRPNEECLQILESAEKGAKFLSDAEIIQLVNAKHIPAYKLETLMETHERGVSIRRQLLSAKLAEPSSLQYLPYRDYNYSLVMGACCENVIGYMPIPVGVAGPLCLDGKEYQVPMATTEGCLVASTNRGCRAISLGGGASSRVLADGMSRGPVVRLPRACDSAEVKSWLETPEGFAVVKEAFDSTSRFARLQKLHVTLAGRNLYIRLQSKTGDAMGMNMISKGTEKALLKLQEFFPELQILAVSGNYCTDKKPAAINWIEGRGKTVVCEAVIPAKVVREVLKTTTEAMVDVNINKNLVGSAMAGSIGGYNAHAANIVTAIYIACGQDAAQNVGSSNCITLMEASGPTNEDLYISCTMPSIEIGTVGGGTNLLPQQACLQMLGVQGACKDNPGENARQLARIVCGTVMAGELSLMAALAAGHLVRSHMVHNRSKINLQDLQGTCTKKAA
Description: method A: in vitro method of H. J. Knauss et al., inhibition of 50% of the enzymatic activity. The following applies: compounds tested as the sodium salts of their corresponding hydroxy acid forms. The class given is biochemical. The source says:
The inhibitory activity of these compounds for the biosynthesis of cholesterol has been measured by two methods. The experimental method A was the in vitro method of H. J. Knauss, et al., J. Biol. Chem., 234, 2835 (1959) and the activity was expressed as the molar concentration IC50 (M) necessary for the inhibition of 50% of the enzymatic activity. The experimental method B was the method of A. A. Kandutsch, et al., J. Biol. Chem., 248, 8403 (1973) for measuring the quantity of ^14 C-cholesterol biosynthesis from acetic acid-^14 C in mouse L cells. The activity is expressed for inhibition of 50% of the biosynthesis of cholesterol.

Assay [2] concerns the target T1, 3-hydroxy-3-methylglutaryl-coenzyme A reductase. To be noted: method A; values of Belgian Pat. No. 867,421; read-out: IC50 as reported in the cited Belgian patent; cited from earlier work.
The subject of another assay is mouse L cells. To be noted: method B, values of Belgian Pat. No. 867,421, read-out: IC50 (inhibition of 50% of the biosynthesis of cholesterol) as reported in the cited Belgian patent; cited from earlier work.

Structures can show the parent of a compound that is named as a salt. Where two headings read alike, the source gives them in different places.

Take `O=C(O)C[C@H](O)C[C@H](O)/C=C/c1c(Cl)cc(Cl)cc1-c1ccc(F)cc1` (relative stereo) [Example 43, (+)-(E)-(3R*,5S*)-7-(3,5-dichloro-4'-fluoro[1,1'-biphenyl]-2-yl)-3,5-dihydroxy-6-heptenoic acid, ammonium salt]: the IC50 in assay [1] was about 13 nM.
On the same count and under the same terms, as for `Cc1cc(C)cc(-c2cc(C)cc(C)c2C=CC2CC(O)CC(=O)O2)c1` (stereo not drawn) [6-[2-(3,3',5,5'-tetramethyl-[1,1'-biphenyl]-2-yl)ethenyl]-3,4,5,6-tetrahydro-4-hydroxy-2H-pyran-2-one], the figure is 15 nM.
Consider `Cc1cc(C)c(C=CC2CC(O)CC(=O)O2)c(-c2ccc(F)c(C)c2)c1` (stereo not drawn) [6-[2-(4'-fluoro-3,3',5-trimethyl[1,1'-biphenyl]-2-yl)ethenyl]-3,4,5,6-tetrahydro-4-hydroxy-2H-pyran-2-one], for which the half-maximal inhibitory concentration (IC50) in assay [1] amounted to 7 nM.
Still for that read-out and setting: as for `O=C1C[C@@H](O)C[C@H](CCc2c(Cl)cc(Cl)cc2OCc2ccccc2)O1` [Example 14, (+)-Trans-6-[2-(2,4-dichloro-6-phenylmethoxyphenyl)ethyl]-3,4,5,6-tetrahydro-4-hydroxy-2H-pyran-2-one], the figure is 68 nM.
As for `CC[C@H](C)C(=O)O[C@H]1CCC=C2C=C[C@H](C)[C@H](CC[C@@H]3C[C@@H](O)CC(=O)O3)[C@H]21` [compactin], the half-maximal inhibitory concentration (IC50) (in assay [2]; with mouse L cells) was about 8 nM each time.
